Publication PMC10504751, “Chalcone/1,3,4-Oxadiazole/Benzimidazole hybrids as novel anti-proliferative agents inducing apoptosis and inhibiting EGFR & BRAFV^600E” (BMC Chemistry, 2023)
Where two headings read alike, the source gives them in different places.

How the values were obtained:
[1] = MTT cell viability assay in normal cells; type: cell-based; conditions: human, MCF-10A normal mammary epithelial cells
Protocol: To check the safety of prepared compounds and evaluate their selectivity towards tumor cells over normal ones, the toxicity of compounds 7a-x were evaluated by 3-(4,5-Dimethylthiazole-2-yl)-2,5-diphenyltetrazol (MTT) assay on the normal human mammary epithelial cell line (MCF-10 A). The human mammary epithelial cell lines were incubated for four days with a concentration of 50 µM of compounds 7a-x.
MTT assay was done to determine the effect of the synthesized compounds on the viability of mammary epithelial cells (MCF-10 A). Compounds 7a-x were incubated with MCF-10 A cells for 4 days at 50 µM concentration, and the viability of cells was determined. See Appendix A.
MTT assay was carried out to study the effect of compounds on mammary epithelial cells (MCF-10A).^7, ^8 The medium in which cells were propagated contained Dulbecco's modified Eagle's medium (DMEM)/ Ham's F-12 medium (1:1) supplemented with epidermal growth factor (20 ng/mL), hydrocortisone (500 ng/mL), insulin (10 μg/mL), 2 mM glutamine and 10% foetal calf serum. After every 2-3 days, the cells were passaged using trypsin ethylenediamine tetra acetic acid (EDTA). The cells were seeded at a density of 10^4 cells mL^-1 in flat-bottomed culture plates containing 96 wells each. After 24 h, medium was removed from the plates and the compounds in (in 0.1% DMSO) were added (in 200 μL medium to yield a final concentration of 0.1% v/v) to the wells of plates. A single compound was designated with four wells followed by incubation of plates for 96h at 37°C. After incubation, medium was removed completely from the plates followed by addition of MTT (0.4 mg/mL in medium) to each well and subsequent incubation of plates for 3h. MTT (along with the medium) was removed and DMSO (150μL) was added to each well of the culture plates, followed by vortexing and subsequent measurement of absorbance (at 540 nm) using microplate reader.

MOLT-4 = assay: NCI one-dose SRB anti-proliferative screen; type: cell-based, human; conditions: for inhibition at 10 µM: Homo sapiens, read-out: Cell growth inhibition %
Protocol: (§1) The twenty-four synthesized compounds were submitted to the National Cancer Institute (NCI), USA. Eighteen hybrids 7a-h, 7k-r, 7u, and 7v were selected by NCI for one-dose assessment of their anti-proliferative activities at 10 µM dose by Sulforhodamine B colorimetric assay. The assessment was performed in 60 cell lines derived from nine tumor subpanels, comprising lung, leukemia, melanoma, colon, renal, CNS, prostate, breast, and ovarian cancer cell lines.
(§2) The methodology of the NCI anti-proliferative screening has been described in details elsewhere (http://www.dtp.nci.nih.gov).

HCT-116 = assay: NCI one-dose SRB anti-proliferative screen; type: cell-based, human; conditions: for Growth Percent: 10 µM one dose; for inhibition at 10 µM: Homo sapiens, read-out: Cell growth inhibition %
Protocol: as §1, §2

T-47D = assay: NCI one-dose SRB anti-proliferative screen; type: cell-based, human; conditions: Homo sapiens, T47D, read-out: Cell growth inhibition %
Protocol: as §1, §2

K-562 = assay: NCI one-dose SRB anti-proliferative screen; type: cell-based, human; conditions: for inhibition at 10 µM: Homo sapiens, K562, read-out: Cell growth inhibition %; for Growth Percent: 10 µM one dose
Protocol: as §1, §2

RXF 393 = assay: NCI one-dose SRB anti-proliferative screen; type: cell-based, human; conditions: for inhibition at 10 µM: Homo sapiens, read-out: Cell growth inhibition %
Protocol: as §1, §2

EGFR = target: T1, EGFR (Homo sapiens, UniProt P00533); assay: EGFR-TK inhibitory assay; type: biochemical; conditions: read-out: EGFR Inhibition IC50 ± SEM
T1 construct: EGFR cytoplasmic domain (EGFR-CD, amino acids 645–1186); His6 (N); made in house; host or cells: Sf-9 insect cells (baculovirus; pBlueBacHis2B / pFASTBacHTc)

BRAF^V600E = assay: biochemical
Protocol: To further denature the protein, heat (70° C) was applied for 5 min. […] 10 µL of each reaction was loaded into the precast plates and electrophoresis was allowed to proceed. After completion of electrophoresis, the front part of the precast gel plate (holding hot ATP) was cut and afterwards cast-off. The dried gel was developed using a phosphor screen.

MCF-7 = assay: Propidium iodide anti-proliferative assay; type: cell-based; conditions: Homo sapiens, MCF7; 48 h incubation; read-out: IC50 ± SEM MCF-7
Protocol: (§3) The propidium iodide (PI) tests^31, 32 were further used for assessment of the IC50 of all synthesized compounds and compared to Doxorubicin as a positive control against four cancer cell lines; pancreatic cancer cell line (Panc-1), epithelial line cancer cell (A-549), breast cancer cell line (MCF-7), and colon cancer cell line (HT-29).
(§4) Using the propidium iodide fluorescence assay with doxorubicin as the reference drug, IC50 of the 24 compounds 7a-x, was carried out according to a previously reported procedure^31, 32 against a panel of four human cancer cell lines; epithelial cancer cell line (A-549), breast cancer cell line (MCF-7), colon cancer cell line (HT-29) and pancreas cancer cell line (Panc-1). Compounds 7a-x were incubated with cancer cells for 2 days at different concentrations. See Appendix A.
(§5) To explore the antiproliferative potential of compounds propidium iodide fluorescence assay was performed using different cell lines (melanoma cancer cell line LOX-IMVI, pancreatic cancer cell line (Panc-1), epithelial line cancer cell (A-549), breast cancer cell line (MCF-7), and colon cancer cell line (HT-29). To calculate the total nuclear DNA, a fluorescent dye (propidium iodide, PI) is used which can attach to the DNA,^9,^10 thus offering a quick and precise technique. PI cannot pass through the cell membrane and its signal intensity can be considered as directly proportional to the quantity of cellular DNA. Cells whose cell membranes are damaged or have changed permeability are counted as dead ones. The assay was performed by seeding the cells of different cancer cell lines at a density of 3000-7500 cells/well (in 200µl medium) in culture plates followed by incubation for 24h at 37 °C in humidified 5% CO2/95% air atmospheric conditions. The medium was removed; the compounds were added to the plates at 10 µM concentrations (in 0.1% DMSO) in triplicates, followed by incubation for 48 h. DMSO (0.1%) was used as control. After incubation, medium was removed followed by the addition of PI (25 µl, 50µg/mL in water/medium) to each well of the plates. At -80 °C, the plates were allowed to freeze for 24 h, followed by thawing at 25 °C. A fluorometer (Polar-Star BMG Tech) was used to record the readings at excitation and emission wavelengths of 530 and 620 nm for each well. The percentage cytotoxicity of compounds was calculated using the following formula:
(§6) Where ATC= Absorbance of treated cells and AC= Absorbance of control. […]

Panc-1 = assay: Propidium iodide anti-proliferative assay; type: cell-based; conditions: Homo sapiens, 48 h incubation, read-out: IC50 ± SEM Panc-1
Protocol: as §3, §4, §5, §6

A-549 = assay: Propidium iodide anti-proliferative assay; type: cell-based; conditions: Homo sapiens, A549; 48 h incubation; read-out: IC50 ± SEM A-549
Protocol: as §3, §4, §5, §6

HT-29 = assay: Propidium iodide anti-proliferative assay; type: cell-based; conditions: Homo sapiens, 48 h incubation, read-out: IC50 ± SEM HT-29
Protocol: as §3, §4, §5, §6

[2] = HCT-116, Colon cancer, NCI one dose
[3] = T-47D, Breast cancer, NCI one dose
[4] = RXF 393, Renal cancer, NCI one dose
[5] = MOLT-4 (Leukemia), NCI one dose 10 µM
[6] = HCT-116 (Colon Cancer), NCI one dose 10 µM
[7] = T-47D (Breast Cancer), NCI one dose 10 µM
[8] = K-562 (Leukemia), NCI one dose 10 µM
[9] = RXF 393 (Renal Cancer), NCI one dose 10 µM

T1 sequence (P00533 669-1210): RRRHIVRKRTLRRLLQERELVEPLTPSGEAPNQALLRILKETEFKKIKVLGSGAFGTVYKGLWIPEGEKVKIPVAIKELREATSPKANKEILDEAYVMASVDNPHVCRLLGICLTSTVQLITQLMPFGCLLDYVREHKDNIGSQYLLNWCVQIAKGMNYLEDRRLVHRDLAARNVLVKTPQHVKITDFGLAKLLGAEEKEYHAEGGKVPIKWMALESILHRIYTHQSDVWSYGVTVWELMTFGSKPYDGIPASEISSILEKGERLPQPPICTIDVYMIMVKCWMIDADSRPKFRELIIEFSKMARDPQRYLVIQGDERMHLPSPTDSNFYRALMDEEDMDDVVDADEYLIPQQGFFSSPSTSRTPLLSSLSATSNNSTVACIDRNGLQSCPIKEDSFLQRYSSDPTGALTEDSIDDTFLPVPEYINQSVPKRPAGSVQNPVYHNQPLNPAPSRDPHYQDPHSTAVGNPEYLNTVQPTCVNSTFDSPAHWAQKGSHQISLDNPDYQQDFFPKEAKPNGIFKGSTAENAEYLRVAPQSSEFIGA
Chain of BRAF^V600E (P28028 whole entry V585E): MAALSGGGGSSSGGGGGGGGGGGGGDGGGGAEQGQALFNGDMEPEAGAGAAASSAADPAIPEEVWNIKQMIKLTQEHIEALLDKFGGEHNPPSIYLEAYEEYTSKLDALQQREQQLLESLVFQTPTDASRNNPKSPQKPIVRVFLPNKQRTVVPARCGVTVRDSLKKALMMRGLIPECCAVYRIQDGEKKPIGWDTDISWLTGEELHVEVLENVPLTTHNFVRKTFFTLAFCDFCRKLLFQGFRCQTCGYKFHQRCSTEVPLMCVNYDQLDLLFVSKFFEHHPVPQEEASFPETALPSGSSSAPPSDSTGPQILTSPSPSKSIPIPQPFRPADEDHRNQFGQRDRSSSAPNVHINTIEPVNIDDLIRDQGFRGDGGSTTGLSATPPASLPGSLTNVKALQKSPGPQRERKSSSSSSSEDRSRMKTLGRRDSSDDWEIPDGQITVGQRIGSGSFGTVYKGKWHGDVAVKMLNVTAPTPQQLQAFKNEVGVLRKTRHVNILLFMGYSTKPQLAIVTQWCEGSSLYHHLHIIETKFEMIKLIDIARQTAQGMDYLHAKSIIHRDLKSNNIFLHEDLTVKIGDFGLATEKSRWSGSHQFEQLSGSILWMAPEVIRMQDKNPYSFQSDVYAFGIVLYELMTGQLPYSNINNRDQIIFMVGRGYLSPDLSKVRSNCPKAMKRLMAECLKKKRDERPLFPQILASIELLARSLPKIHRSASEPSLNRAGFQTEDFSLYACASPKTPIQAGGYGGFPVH

Compound	viability at 96 h, 50 µM [1] [%]	IC50 (EGFR) [nM]	IC50 (BRAF^V600E) [nM]	IC50 (MCF-7) [nM]	IC50 (Panc-1) [nM]	IC50 (A-549) [nM]	IC50 (HT-29) [nM]	inhibition at 10 µM (MOLT-4; [5]) [%]	inhibition at 10 µM (HCT-116; [6]) [%]	inhibition at 10 µM (T-47D; [7]) [%]	inhibition at 10 µM (K-562; [8]) [%]	inhibition at 10 µM (RXF 393; [9]) [%]	also measured
COc1cc(/C=C/C(=O)c2ccc(NC(=O)CSc3nnc(-c4ccc5[nH]c(-c6ccccc6)nc5c4)o3)cc2)cc(OC)c1OC [Compound 7e, 2-{5-[2-Phenyl-1 H-benzo[d]imidazol-5-yl]-1,3,4-oxadiazol-2-ylthio}-N-{4-[(E)-3-(3,4,5-trimethoxyphenyl)acryloyl]phenyl}acetamide]	87	1150 ± 200	900 ± 100	1250 ± 80	1700 ± 300	1600 ± 300	1950 ± 300	–	–	–	–	–	inhibition at 10 µM (MOLT-4; MOLT-4, Leukemia, NCI one dose): 35%; Growth Percent (MOLT-4; MOLT-4 (Leukemia), 10 µM one dose): 30%; Growth Percent (HCT-116; HCT-116 (Colon Cancer)): 40.76%; inhibition at 10 µM (HCT-116; [2]): 59.2%; inhibition at 10 µM (T-47D; [3]): 11.1%; inhibition at 10 µM (K-562; K-562, Leukemia, NCI one dose): 41.7%; Growth Percent (K-562; K-562 (Leukemia)): 58%; inhibition at 10 µM (RXF 393; [4]): 107%; Growth Percent (RXF 393; RXF 393 (Renal Cancer), 10 µM one dose): -6.89%
O=C(CSc1nnc(-c2ccc3[nH]c(-c4ccc(Cl)cc4)nc3c2)o1)Nc1ccc(C(=O)/C=C/c2ccc(Cl)cc2)cc1 [Compound 7g, 2-{5-[2-(4-Chlorophenyl)-1 H-benzo[d]imidazol-5-yl]-1,3,4-oxadiazol-2-ylthio}-N-{4-[(E)-3-(4-chlorophenyl)acryloyl]phenyl}acetamide]	91	1700 ± 200	1000 ± 200	1450 ± 300	1900 ± 500	1800 ± 600	2100 ± 600	22.2	22.2	12.9	18.6	0	–
COc1ccc(/C=C/C(=O)c2ccc(NC(=O)CSc3nnc(-c4ccc5[nH]c(-c6ccc(Cl)cc6)nc5c4)o3)cc2)cc1 [Compound 7h, 2-{5-[2-(4-Chlorophenyl)-1 H-benzo[d]imidazol-5-yl]-1,3,4-oxadiazol-2-ylthio}-N-{4-[(E)-3-(4-methoxyphenyl)acryloyl]phenyl}acetamide]	87	2300 ± 200	2700 ± 300	1750 ± 400	2050 ± 500	1950 ± 600	2250 ± 600	35.4	6.56	22	12.7	0	–
COc1ccc(-c2nc3cc(-c4nnc(SCC(=O)Nc5ccc(C(=O)/C=C/c6ccc(OC)c(OC)c6)cc5)o4)ccc3[nH]2)cc1 [Compound 7n, 2-{5-[2-(4-Methoxyphenyl)-1 H-benzo[d]imidazol-5-yl]-1,3,4-oxadiazol-2-ylthio}-N-{4-[(E)-3-(3,4-dimethoxyphenyl)acryloyl]phenyl}acetamide]	92	1400 ± 200	3700 ± 200	1650 ± 300	2050 ± 500	1900 ± 600	2200 ± 600	–	–	–	–	–	inhibition at 10 µM (MOLT-4; MOLT-4, Leukemia, NCI one dose): 35.7%; Growth Percent (HCT-116; HCT-116 (Colon Cancer)): 57.96%; inhibition at 10 µM (HCT-116; [2]): 42%; inhibition at 10 µM (T-47D; [3]): 15.4%; inhibition at 10 µM (K-562; K-562, Leukemia, NCI one dose): 52.1%; Growth Percent (K-562; K-562 (Leukemia)): 47%; inhibition at 10 µM (RXF 393; [4]): 31.5%
COc1ccc(-c2nc3cc(-c4nnc(SCC(=O)Nc5ccc(C(=O)/C=C/c6ccccc6)cc5)o4)ccc3[nH]2)cc1OC [Compound 7p, 2-{5-[2-(3,4-Dimethoxyphenyl)-1 H-benzo[d]imidazol-5-yl]-1,3,4-oxadiazol-2-ylthio}-N-{4-[(E)-3-phenylacryloyl]phenyl}acetamide]	87	3500 ± 300	4200 ± 300	2100 ± 200	3100 ± 400	2500 ± 500	3300 ± 400	19.5	10.3	13.1	8.36	0	–
COc1ccc(-c2nc3cc(-c4nnc(SCC(=O)Nc5ccc(C(=O)/C=C/c6ccc(Cl)cc6)cc5)o4)ccc3[nH]2)cc1OC [Compound 7q, 2-{5-[2-(3,4-Dimethoxyphenyl)-1 H-benzo[d]imidazol-5-yl]-1,3,4-oxadiazol-2-ylthio}-N-{4-[(E)-3-(4-chlorophenyl)acryloyl]phenyl}acetamide]	94	3900 ± 300	4700 ± 300	3020 ± 300	3800 ± 500	3400 ± 400	3700 ± 500	24.2	0	10.6	7.27	0	–
COc1cc(-c2nc3cc(-c4nnc(SCC(=O)Nc5ccc(C(=O)/C=C/c6ccc(Cl)cc6)cc5)o4)ccc3[nH]2)cc(OC)c1OC [Compound 7v, 2-{5-[2-(3,4,5-Trimethoxyphenyl)-1 H-benzo[d]imidazol-5-yl]-1,3,4-oxadiazol-2-ylthio}-N-{4-[(E)-3-(4-chlorophenyl)acryloyl]phenyl}acetamide]	87	2800 ± 300	3100 ± 200	2200 ± 80	2600 ± 200	2450 ± 500	2900 ± 500	20.6	18.5	19.6	16.2	0	–
